pIC50: −log10 of the molar value.
What was measured:
Assay type in all cases: cell-based
[1] = test system: BEL-7402 liver cancer cell line; assay: CCK-8 proliferation inhibition
Source text: (§1) 2. The present invention adopts the CCK-8 method to determine the proliferation inhibition effect of the spiro three-membered ring, spiro five-membered ring peptide deformylase inhibitor as described in Examples 1-80 against colorectal cancer cells, lung cancer cells, gastric cancer cells, liver cancer cells, and the like. […] The compound having the best activity synthesized in Example 64 was further tested for its inhibitory activity against other tumor cells including T cell leukemia, acute myeloid leukemia, cervical cancer, breast cancer, prostate cancer and osteosarcoma, and the like (see Table 7).
(§2) (1) HCT-116 colorectal cancer cell line, A549 lung cancer cell line, MGC-803 gastric cancer cell line, BEL-7402 liver cancer cell line, Jurkat T cell leukemia cell line, HL60 acute myeloid leukemia cell line, Hela cervical cancer cell line, MCF-7 breast cancer cell line, PC3 prostate cancer cell line and SAOS-2 osteosarcoma cell line were made into single cell suspension, 180 μL of which was inoculated into 96-well culture plate, which was cultured overnight in CO2 incubator (37° C., 5% CO2, 95% air).
(§3) (2) Each of the spiro three-membered ring, spiro five membered ring peptide deformylase inhibitors was dissolved in DMSO, and was further formulated into drug solution with required different final concentration using corresponding cell culture medium. The drug solutions were added to the above cells respectively (20 μL/well), with the control group added with 1‰ DMSO, and cultured in a CO2 incubator for 72 hours.
(§4) (3) After incubation for 72 hours, the culture solution was decanted, and 100 μL of 1:10 diluted CCK-8 solution was added.
(§5) Wherein, in step (1), the concentration of the single cell suspension was 2000 cells/well.
(§6) Wherein, in step (2), HCT-116 cells were cultured in McCoy's 5A medium (containing 10% newborn bovine serum, 1% double antibody); A549 and PC3 cells were cultured in F12 medium (containing 10% newborn bovine serum, 1% double antibody); MGC-803, BEL-7402, SAOS-2, Jurkat and HL60 cells were cultured in 1640 medium (containing 10% newborn bovine serum, 1% double antibody); and MCF-7 and Hela cells were cultured in DMEM high glucose medium (containing 10% newborn bovine serum, 1% double antibody).

[2] = test system: A549 lung cancer cell line; assay: CCK-8 proliferation inhibition; conditions: Homo sapiens
Source text: as §1, §2, §3, §4, §5, §6

[3] = test system: MGC-803 gastric cancer cell line; assay: CCK-8 proliferation inhibition
Source text: as §1, §2, §3, §4, §5, §6

[4] = test system: Enterococcus faecalis (EFA); assay: MIC, two-fold agar dilution (CLSI), clinical isolates
Summary of the method: (§7)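 Following the American Clinical and Laboratory Standards Institute procedure, agar two-fold dilution served to determine minimum inhibitory concentrations.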

[5] = test system: Moraxella catarrhalis (BCA); assay: as above
Summary of the method: as §7

[6] = test system: methicillin-sensitive Staphylococcus aureus (MSSA); assay: as above
Summary of the method: as §7

[7] = test system: Streptococcus pneoumoniae (SPN); assay: as above; conditions: strain SPN 16-4
Summary of the method: as §7

[8] = test system: methicillin-sensitive Staphylococcus epidermidis (MSSE); assay: as above
Summary of the method: as §7

[9] = test system: methicillin-resistant Staphylococcus epidermidis (MRSE); assay: as above
Summary of the method: as §7

[10] = test system: Escherichia coli (including ESBLs, non-ESBLs); assay: as above
Summary of the method: as §7

[11] = test system: methicillin-resistant Staphylococcus aureus (MRSA); assay: as above
Summary of the method: as §7

[12] = test system: Enterococcus faecium (EFM); assay: as above
Summary of the method: as §7

[13] = test system: HCT-116 colorectal cancer cell line; assay: CCK-8 proliferation inhibition; conditions: 72 hours, CCK-8
Summary of the method: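 Cells were plated overnight at 2000 cells/well, then compound in culture medium was added at a range of final concentrations. After 72 hours in a CO2 incubator, medium was replaced with 1:10 CCK-8 solution for the read-out.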

[14] = concentration of 30 μM, 72 hours, 30 µM

Cc1cnc(NC(=O)[C@@H]2CC3(CC3)CN2C(=O)[C@H](CC2CCCC2)CN(O)C=O)s1 [Example 29, (S)-5-((R)-3-cyclopentylmethyl-2-((N-hydroxyformamido)methyl)propionyl)-N-(5-methylthiazol-2-yl)-5-spiro[2.4]heptane-6-carboxamide]
0.06 µg/mL: MIC (anti-bacterial activity) ([8]; strain MSSE 15-6) | MIC (anti-bacterial activity) ([9]; strain MRSE 15-1) | MIC (anti-bacterial activity) ([11]; strain MRSA 15-3)
5.11: pIC50 ([3]; Homo sapiens, MGC-803, 72 hours)
5.05: pIC50 ([13]; Homo sapiens, HCT-116)
0.125 µg/mL: MIC (anti-bacterial activity) ([5]; strain BCA 14-5) | MIC (anti-bacterial activity) ([5]; strain BCA 14-7) | MIC (anti-bacterial activity) ([6]; strain MSSA 15-3) | MIC (anti-bacterial activity) ([6]; strain MSSA 15-4) | MIC (anti-bacterial activity) ([6]; strain MSSA 15-5) | MIC (anti-bacterial activity) ([6]; strain MSSA 15-6) | MIC (anti-bacterial activity) ([8]; strain MSSE 15-3) | MIC (anti-bacterial activity) ([8]; strain MSSE 15-4) | MIC (anti-bacterial activity) ([8]; strain MSSE 15-5) | MIC (anti-bacterial activity) ([9]; strain MRSE 15-2) | MIC (anti-bacterial activity) ([9]; strain MRSE 15-3) | MIC (anti-bacterial activity) ([9]; strain MRSE 15-7) | MIC (anti-bacterial activity) ([11]; strain MRSA 15-1) | MIC (anti-bacterial activity) ([11]; strain MRSA 15-2) | MIC (anti-bacterial activity) ([11]; strain MRSA 15-4)
16 µg/mL: MIC (anti-bacterial activity) ([10]; strain ECO+ 15-1) | MIC (anti-bacterial activity) ([10]; strain ECO+ 15-3) | MIC (anti-bacterial activity) ([10]; strain ECO+ 15-4) | MIC (anti-bacterial activity) ([10]; strain ECO− 15-1) | MIC (anti-bacterial activity) ([10]; strain ECO− 15-2) | MIC (anti-bacterial activity) ([10]; strain ECO− 15-4)
79%: Inhibition of proliferation, Liver cancer BEL-7402 [1, 14]
1 µg/mL: MIC (anti-bacterial activity) ([4]; strain EFA 15-3) | MIC (anti-bacterial activity) ([12]; strain EFM 15-1) | MIC (anti-bacterial activity) ([12]; strain EFM 15-2) | MIC (anti-bacterial activity) ([12]; strain EFM 15-4) | MIC (anti-bacterial activity) ([12]; strain EFM 15-5) | MIC (anti-bacterial activity) ([12]; strain EFM 15-6)
2 µg/mL: MIC (anti-bacterial activity) ([4]; strain EFA 15-9)
0.25 µg/mL: Anti-bacterial activity (MIC), strain BCA 14-10 ([5]; clinical isolate BCA 14-10) | MIC (anti-bacterial activity) ([5]; strain BCA 14-6) | MIC (anti-bacterial activity) ([5]; strain BCA 14-8)
0.5 µg/mL: MIC (anti-bacterial activity) ([5]; strain BCA 14-1) | MIC (anti-bacterial activity) ([5]; strain BCA 14-4) | MIC (anti-bacterial activity) ([12]; strain EFM 15-3)
36%: inhibition at 30 µM ([2]; A549, 72 h, concentration of 30 μM)
78%: Inhibition of proliferation, Gastric cancer MGC-803 [3, 14]
94%: HCT116 inhibition rate/% ([13]; concentration of 30 μM, 30 µM)
4 µg/mL: MIC (anti-bacterial activity) ([4]; strain EFA 15-1) | MIC (anti-bacterial activity) ([4]; strain EFA 15-2) | MIC (anti-bacterial activity) ([4]; strain EFA 15-4) | MIC (anti-bacterial activity) ([4]; strain EFA 15-5) | MIC (anti-bacterial activity) ([4]; strain EFA 15-6) | MIC (anti-bacterial activity) [7]
4.87: pIC50 ([2]; A549, 72 hours)
5.12: pIC50 ([1]; Homo sapiens, Bel-7402, 72 hours)
32 µg/mL: MIC (anti-bacterial activity) ([10]; strain ECO+ 15-2) | MIC (anti-bacterial activity) ([10]; strain ECO− 15-3)

— US10738028B2, “Spiro three-membered ring, spiro five-membered ring peptide deformylase inhibitor and use thereof in antibacteria and anti-tumor” (priority 2016, dated 2020)
